How the values were obtained:
[1] = test system: hSC-CMs (Cor.4U Cardiomyocytes); experiment: CardioExcyte 96 impedance and EFP recording (beating rate, base impedance); type: cell-based, human; conditions: for activity at 0.2 µM / activity at 2 µM / activity at 20 µM / activity at 200 µM: Homo sapiens, Cardiomyocyte, vs baseline before drug (taken as 100%)
How it was run: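 hSC-CM monolayers (Cor.4U), cultured 4 days at 37 °C, 5% CO2, recorded spontaneously beating; impedance sampled at 1 kHz, EFP at 10 kHz. Beating rate taken as reciprocal of inter-spike interval in EFP. Each test concentration expressed as fractional change versus pre-drug baseline (100%).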

[2] = test system: hSC-CMs (Cor.4U Cardiomyocytes); experiment: Apoptosis assay (CellEvent Caspase-3/7 Green, IncuCyte ZOOM kinetics over 24 h); type: cell-based, human; conditions: for activity at 0.2 µM / activity at 2 µM / activity at 20 µM / activity at 200 µM: Homo sapiens, Cardiomyocyte, normalized to time-matched vehicle control
How it was run: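 Apoptosis was followed kinetically with a caspase-3/7 green fluorescent probe, imaging phase contrast and fluorescence every 2 h through 24 h compound exposure, after a 2 h baseline. Human stem cell-derived cardiomyocytes had been pre-cultured 4 days at 37 °C. Green object area per well was expressed relative to time-matched vehicle, with ≥3 replicates per concentration.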

[3] = test system: hSC-CMs (Cor.4U Cardiomyocytes); experiment: ATP assay (CellTiter-Glo Luminescent Cell Viability Assay); type: cell-based, human; conditions: for viability at 0.2 µM / viability at 2 µM / viability at 20 µM / viability at 200 µM: Homo sapiens, Cardiomyocyte, normalized to time-matched DMSO control
How it was run: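 Human stem-cell-derived Cor.4U cardiomyocytes (25,000–30,000/well), cultured 4 days at 37 °C, switched to serum-free BMCC medium 12 h before dosing. Cellular ATP quantified by CellTiter-Glo luminescence and normalized to time-matched DMSO controls; at least three replicates per concentration.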

PI3K p110β = conditions: ref [23]–[25] (NVP-BEZ235), [27] (LY 294002), [28] (GDC-0941), [32] (TGX-221), [33] (CAL-101), [35] (CZC24832); read-out: Target IC50 p110β; cited from earlier work
[4] = clinical exposure in patients; ref [26] (NVP-BEZ235), [29], [30] (GDC-0941), [34] (CAL-101); cited from earlier work

CC[C@H](Nc1ncnc2[nH]cnc12)c1nc2cccc(F)c2c(=O)n1-c1ccccc1 [CAL-101, Idelalisib]
activity at 0.2 µM ([1]; 2h, read-out: BR): 102% | activity at 0.2 µM ([1]; 2h, read-out: Base Imp): 93% | activity at 0.2 µM ([1]; 24h, read-out: BR): 99% | activity at 0.2 µM ([1]; 24h, read-out: Base Imp): 94% | activity at 2 µM ([1]; 2h, read-out: BR): 96% | activity at 2 µM ([1]; 2h, read-out: Base Imp): 93% | activity at 2 µM ([1]; 24h, read-out: BR): 94% | activity at 2 µM ([1]; 24h, read-out: Base Imp): 99% | activity at 20 µM ([1]; 2h, read-out: BR): 89% | activity at 20 µM ([1]; 2h, read-out: Base Imp): 96% | activity at 20 µM ([1]; 24h, read-out: BR): 80% | activity at 20 µM ([1]; 24h, read-out: Base Imp): 89% | activity at 200 µM ([1]; 2h, read-out: BR): 5% | activity at 200 µM ([1]; 2h, read-out: Base Imp): 70% | activity at 200 µM ([1]; 24h, read-out: BR): 39% | activity at 200 µM ([1]; 24h, read-out: Base Imp): 52% | Effect on cardiomyocyte function in 3D surface plots (beating rate, base impedance, ATP), in words ([1]; hSC-CMs, 2 and 24 h): pronounced effects | Reduction of base impedance ([1]; hSC-CMs, 2 and 24 h): more than 20% | Reduction of beating rate ([1]; hSC-CMs, 2 and 24 h): more than 20% | activity at 0.2 µM ([2]; 2h): 137% | activity at 0.2 µM ([2]; 24h): 90% | activity at 2 µM ([2]; 2h): 118% | activity at 2 µM ([2]; 24h): 83% | activity at 20 µM ([2]; 2h): 99% | activity at 20 µM ([2]; 24h): 169% | activity at 200 µM ([2]; 2h): 83% | activity at 200 µM ([2]; 24h): 544% | Apoptosis (caspase-3/7 activation), result in words ([2]; hSC-CMs, monitored over 24 h): induced apoptosis in hSC-CMs with a fast onset | Time to reach the maximum number of apoptotic cells ([2]; hSC-CMs, monitored over 24 h): ≤ 12 h | viability at 0.2 µM ([3]; 2h): 87% | viability at 0.2 µM ([3]; 24h): 98% | viability at 2 µM ([3]; 2h): 87% | viability at 2 µM ([3]; 24h): 92% | viability at 20 µM ([3]; 2h): 92% | viability at 20 µM ([3]; 24h): 89% | viability at 200 µM ([3]; 2h): 98% | viability at 200 µM ([3]; 24h): 79% | Decrease of ATP level ([3]; hSC-CMs, after 24 h of incubation): 20–25% | IC50 (PI3K p110β): 56 nM | Cmax free [4]: 700 nM
